GI50 and TGI data for eleven compounds are collected here from PubChem BioAssay (NCI).

Several values for one entry are separate records, joined by “and”; a condition that tells them apart may be missing. Equal values may be shown once.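 1) Cells in 96-well plates. 2) Compound, 48 h, 5 concentrations. 3) Linear interpolation between surrounding doses. 4) Unreached endpoint = highest concentration. Abbreviation: GI50, concentration required for 50% inhibition of growth. At the TGI there is no net growth.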

Test systems include CAKI-1 renal; MDA-MB-435; SW-620 colon; OVCAR-8 ovarian; MOLT-4 leukemia; SK-OV-3 ovarian; HOP-92 NSCLC; NCI-H226 lung.
What all share (experiment): DTP human tumour cell line panel, 48 h

Take `CC[C@@]1(O)C(=O)OCc2c1cc1n(c2=O)Cc2c-1nc1cc3c(cc1c2C)OCO3`: the GI50 is less than 0.0001 µM in the test on CAKI-1 renal; 0.0016 µM in the test on MDA-MB-435; less than 0.0001 µM in the test on SW-620 colon; less than 0.0001 µM with OVCAR-8 ovarian; less than 0.0001 µM with MOLT-4 leukemia; less than 0.0001 µM in the test on SK-OV-3 ovarian. Besides, the GI50 with NCI-H226 lung was less than 0.0001 µM. Further, the total growth inhibition concentration (TGI) was 0.235 µM and 0.122 µM with CAKI-1 renal; greater than 100 µM in the test on SW-620 colon; 0.25 µM and 0.331 µM in the test with SK-OV-3 ovarian; 0.0782 µM with HOP-92 NSCLC; 0.0195 µM in the test on NCI-H226 lung.
For `C=C(CN1CCN(c2cccc(C(F)(F)F)n2)CC1)c1ccc(C(=S)Nc2ccccc2N)cc1`, the GI50 with CAKI-1 renal was 3.26 µM; with MDA-MB-435 it was 3.77 µM; in the test with SW-620 colon it was 4.07 µM; in the test on OVCAR-8 ovarian, 5.33 µM; in the test with MOLT-4 leukemia, 2.1 µM; in the test on NCI-H226 lung, 4.91 µM. Moreover, the total growth inhibition concentration (TGI) with CAKI-1 renal is greater than 100 µM; in the test with MDA-MB-435, greater than 100 µM; in the test with SW-620 colon it was 72.2 µM; in the test with OVCAR-8 ovarian it was greater than 100 µM; with MOLT-4 leukemia it was 6.4 µM; with NCI-H226 lung it was greater than 100 µM.
Take `C/C(=C\COc1c2c(cc3c1CCO3)OC1(C=C2)OC(CC/C(C)=C/COc2c3ccoc3cc3oc(=O)ccc23)C(C)(C)O1)CCC(O)C(C)(C)O` (stereo not drawn): the GI50 is 8.07 µM with CAKI-1 renal; 36.4 µM in the test with MDA-MB-435; 62.3 µM in the test on SW-620 colon; 8.56 µM with OVCAR-8 ovarian; 4.76 µM with MOLT-4 leukemia; greater than 100 µM in the test on SK-OV-3 ovarian. The GI50 was 7.56 µM in the test on HOP-92 NSCLC and 58.7 µM in the test with NCI-H226 lung. For the same compound, the concentration for total growth inhibition (TGI) is greater than 100 µM in the test on CAKI-1 renal; greater than 100 µM in the test on MDA-MB-435; greater than 100 µM in the test with SW-620 colon; greater than 100 µM in the test on OVCAR-8 ovarian; 53.1 µM in the test with MOLT-4 leukemia; greater than 100 µM in the test with SK-OV-3 ovarian. Also, the TGI in the test on HOP-92 NSCLC and in the test with NCI-H226 lung was greater than 100 µM each time.
Turning to `O=C(NN=C1CCCCC1)c1[nH]c2ccc(F)cc2c1-c1ccccc1`, the GI50 with CAKI-1 renal is 34.5 µM; in the test with MDA-MB-435, 35.3 µM; in the test with SW-620 colon, 46.9 µM; with OVCAR-8 ovarian it was 51.4 µM; in the test on MOLT-4 leukemia it was 22.5 µM; in the test on SK-OV-3 ovarian, 35.1 µM. The results for the GI50 with HOP-92 NSCLC and in the test on NCI-H226 lung were 50.9 µM and 49.1 µM, respectively. The concentration for total growth inhibition (TGI) is greater than 100 µM with CAKI-1 renal; greater than 100 µM with MDA-MB-435; greater than 100 µM in the test with SW-620 colon; greater than 100 µM in the test with OVCAR-8 ovarian; 61.9 µM in the test on MOLT-4 leukemia; greater than 100 µM in the test with SK-OV-3 ovarian. Also, the TGI in the test with HOP-92 NSCLC and in the test on NCI-H226 lung was greater than 100 µM in each case.
In the case of `CCCCCCCCCCCCCCCCOP(=O)(O)OP(=O)(O)OCC1OC(n2ccc(N)nc2=O)C(O)C1O` (stereo not drawn), the GI50 with CAKI-1 renal was > 100 µM and 26.1 µM; in the test on SK-OV-3 ovarian it was > 100 µM and 48.7 µM. Moreover, the concentration for total growth inhibition (TGI) in the test with CAKI-1 renal, in the test with MDA-MB-435, in the test with SW-620 colon, with OVCAR-8 ovarian, in the test with MOLT-4 leukemia and with SK-OV-3 ovarian was greater than 100 µM throughout. Also, the TGI with HOP-92 NSCLC and with NCI-H226 lung was greater than 100 µM throughout.
Consider `COC(=O)/C=C/c1cn(C(C)=O)c2ccc(Br)cc12`, for which the GI50 is 19.1 µM in the test on CAKI-1 renal; 29 µM with MDA-MB-435; 35.6 µM in the test with SW-620 colon; 38.5 µM in the test with OVCAR-8 ovarian; 27.4 µM with MOLT-4 leukemia; 32.4 µM with SK-OV-3 ovarian. In addition, the figures for the GI50 in the test on HOP-92 NSCLC and in the test on NCI-H226 lung were 14.7 µM and 20.9 µM, respectively. In addition, the TGI is 44.2 µM in the test with CAKI-1 renal; greater than 100 µM with MDA-MB-435; greater than 100 µM in the test on SW-620 colon; greater than 100 µM in the test on OVCAR-8 ovarian; greater than 100 µM in the test with MOLT-4 leukemia; greater than 100 µM in the test with SK-OV-3 ovarian. The TGI in the test with HOP-92 NSCLC is greater than 60.7 µM; in the test on NCI-H226 lung it was greater than 93.4 µM.
For `COc1ccc(CNc2nc3cc(N)cc(N)c3nc2-c2ccccc2)cc1`, the GI50 was 16.3 µM with CAKI-1 renal; 10.1 µM with MDA-MB-435; 12.8 µM in the test on SW-620 colon; 14.8 µM with OVCAR-8 ovarian; 13 µM with HOP-92 NSCLC; 20.2 µM in the test with NCI-H226 lung. The TGI with CAKI-1 renal was found to be 35.9 µM; with MDA-MB-435 it was 21.7 µM; in the test with SW-620 colon, 30 µM; in the test on OVCAR-8 ovarian, 39.5 µM; in the test on HOP-92 NSCLC it was 37.2 µM; with NCI-H226 lung, 70.5 µM.
As for `CC/C(=C(/c1ccc(O)cc1)c1ccc(OCCN2CCCCC2)cc1)c1ccc(OC)cc1`, the GI50 was 1.58 µM with MDA-MB-435; 1.77 µM with SW-620 colon; 2.45 µM in the test with OVCAR-8 ovarian; 1.6 µM in the test on MOLT-4 leukemia; 14 µM in the test on SK-OV-3 ovarian; 0.665 µM in the test with HOP-92 NSCLC. Moreover, the GI50 in the test on NCI-H226 lung was 16.8 µM. Moreover, the concentration for total growth inhibition (TGI) is 3.1 µM in the test on MDA-MB-435; 3.89 µM in the test on SW-620 colon; 6.02 µM in the test with OVCAR-8 ovarian; 5.71 µM with MOLT-4 leukemia; 27.3 µM in the test with SK-OV-3 ovarian; 2.38 µM in the test on HOP-92 NSCLC. The same compound returned a TGI in the test with NCI-H226 lung of 37.9 µM.
Regarding `CCOC(=O)C(C)(C)C(O)C(C)C` (stereo not drawn), the TGI with CAKI-1 renal, in the test on MDA-MB-435, with SW-620 colon, in the test with OVCAR-8 ovarian, with MOLT-4 leukemia and in the test on SK-OV-3 ovarian was greater than 100 µM in each case. In addition, the TGI with HOP-92 NSCLC is greater than 100 µM.
Consider `COc1cccc2c1c(C1=C(c3cn(C)c4ccccc34)C(=O)NC1=O)cn2C`, for which the GI50 with CAKI-1 renal is greater than 25 µM; in the test on MDA-MB-435 it was greater than 13.8 µM; in the test on SW-620 colon it was greater than 25 µM; in the test on OVCAR-8 ovarian, greater than 25 µM; in the test with MOLT-4 leukemia, greater than 25 µM; in the test on SK-OV-3 ovarian, greater than 25 µM. In the test with NCI-H226 lung, the GI50 is greater than 25 µM. Besides, the TGI in the test with CAKI-1 renal, with MDA-MB-435, with SW-620 colon, with OVCAR-8 ovarian, in the test with MOLT-4 leukemia and in the test on SK-OV-3 ovarian was greater than 25 µM each time. The compound further gave a concentration for total growth inhibition (TGI) in the test with NCI-H226 lung greater than 25 µM.
Take `C/C(=C(\c1ccc(OCCN2CCCCCC2)cc1)c1ccc(OC(=O)Cc2ccccc2)cc1)c1ccc(Cl)cc1`: the GI50 was 2.74 µM in the test on CAKI-1 renal; 2.46 µM in the test with MDA-MB-435; 2.56 µM with SW-620 colon; 3.24 µM in the test on OVCAR-8 ovarian; 3.09 µM in the test with MOLT-4 leukemia; 4.87 µM in the test with SK-OV-3 ovarian. In addition, the GI50 in the test on NCI-H226 lung was 2.94 µM. Moreover, the TGI with CAKI-1 renal was 5.37 µM; in the test on MDA-MB-435 it was 4.66 µM; with SW-620 colon it was 5.25 µM; with OVCAR-8 ovarian it was 6.35 µM; in the test on MOLT-4 leukemia, 13.4 µM; in the test on SK-OV-3 ovarian it was 15.6 µM. The compound further gave a TGI in the test on NCI-H226 lung of 7.32 µM.

The GI50 is the concentration giving 50% growth inhibition. As usually defined, the TGI is the concentration giving total growth inhibition. A high value points to lower sensitivity of the cells.
